The values that follow come from patent US20080166408A1, “Oral Dosage Form Comprising Rosiglitazone” (priority 2005, published 2008).

The data set is described as follows: pH dependent solubility of Compound A. The class given is physicochemical. As to conditions: acidic conditions of the stomach (around pH 2) versus near neutral conditions of the lower intestine (around pH 7); Compound A and its salts or solvates, in particular the maleate salt.

Molecules are shown by their SMILES.

For the compound `CN(CCOc1ccc(CC2SC(=O)NC2=O)cc1)c1ccccn1` (stereo not shown) [Compound A, 5-[4-[2-(N-methyl-N-(2 pyridyl)amino)ethoxy]benzyl]thiazolidine-2,4-dione], the pH dependent solubility entry is “more soluble in the acidic conditions of the stomach (around pH 2) than in the near neutral conditions of the lower intestine (around pH 7)”.
